Assay results from patent publication US20240269158A1, “THERAPEUTIC AGENTS AND METHODS FOR TREATMENT OF BARTONELLOSIS” (THE ADMINISTRATORS OF THE TULANE EDUCATIONAL FUND, priority 2021, published 2024).
Values after ≈ are worked out from the molar mass of the structure shown. Read-outs that look alike come from different tables or passages of the source.

Experiments:
[1] = system: B. henselae; assay: MIC assay in liquid culture media (OD600); format: cell-based, Bartonella henselae
Description: (§1) The B. henselae strains used were San Antonio 2, 267HO04, a human clinical isolate and B. vinsonii subsp. berkhoffii. Both the bacteria were initially grown on tryptic soy agar (TSA) supplemented with 5% defibrinated sheep blood plates that were either pre-made (Remel, R01198) or homemade, in a humidified atmosphere at 37° C. with 5% CO2 for 7 days. For the preparation of liquid cultures, an individual well-grown colony from the plate was resuspended in 15 ml Falcon tubes containing 3 mL of either Schneider's insect media supplemented with 10% FBS, or Grace's insect media (Gibco, 11605-094) supplemented with 10% FBS, or BAPGM serum-free liquid media. The cultures grew for 7 more days in the atmosphere as above without shaking. The number of viable bacteria was determined by either plating serial dilutions of the culture on plates for CFU or by live/dead staining. Before every experiment, bacteria were mixed well and passed through 22-gauge needle to break large clumps of bacteria.
(§2) Optical density (OD) of 7-day old bacterial liquid culture that was grown from an individual colony was measured using a spectrophotometer (Bio-Rad, SmartSpec 300, 170-2501). Bacterial culture was then diluted down to an OD of 0.1 ? 3×10^8 cfu/ml with the respective media.
(§3) To determine the MIC of the antibiotics and for the visualization of the bacterial growth, a clear 96-well plate was used. Into each well of a 96-well plate, 50 μl of the 0.1 OD bacterial culture and 50 μl of the liquid media containing antibiotics were added to the wells bringing the total volume to 100 μl of 0.05 OD bacteria (CFU ? 1.5×10^7) in each well. Wells containing only bacteria with solvent used in the dilution of the antibiotics served as a positive control to verify the growth of bacteria. As a negative control, wells containing only media and solvents were used. Each concentration of diluted antibiotic was run in 4 replicates to minimize the error rate. The 96-well plate was covered with the lid and incubated at 37° C. with 5% CO2. OD of the culture was read after 48 hrs and 96 hrs using a hybrid multi-mode microplate reader (Biotek, Synergy H4 hybrid reader) at OD600. The assay was repeated three times.
(§4) Therapeutic agent stocks were prepared in the following solvents: 10 mg/ml of ceftriaxone (USP), doxycycline (Fisher scientific, D9891-1G), gentamicin (Fisher scientific, 1405-41-0), ampicillin (Fisher scientific, 69-52-3) and azlocillin (Flightpath) in sterile cell culture grade water, whereas 5 mg/ml of azithromycin (Sigma, PZ0007-5MG) was dissolved in sterile cell culture grade DMSO. Antibiotics were then aliquoted and stored at either −80° C. or −20° C. until further use. On the day of assay, these stock concentrations were diluted to 1 mg/ml and 100 μg/ml in the respected bacterial culture media for MIC and cell-free, liquid culture MBC assays. For the DH82 cell-based MBC assay, antibiotics were diluted in EMEM media supplemented with 15% heat inactivated FBS.
The determination of susceptibility to therapeutic agents was performed in liquid culture media. Six different therapeutic agents were tested with multiple different concentrations against B. henselae and B. vinsonii. Therapeutic agent concentrations tested were as follows: Ceftriaxone 0.001, 0.01, 0.1, 0.3, 0.5, 1, 2, and 5 μg/ml; doxycycline 0.001, 0.01, 0.1, 0.3, 0.5, 1, 2, 5, and 10 μg/ml, gentamicin: 0.01, 0.1, 0.3, 0.5, 1, 2, 4, 8, and 16 μg/ml, and azithromycin: 0.001, 0.005, 0.02, 0.1, 0.3, 0.5, 1, 2, 5, and 10 μg/ml, were tested based on previous antibiotic susceptibility studies. The following azlocillin dilutions were included: 0.001, 0.005, 0.01, 0.02, 0.5, 1, 2, and 5 μg/ml. The ampicillin dilutions included were as follows: 0.001, 0.005, 0.01, 0.02, 0.5, 1, 2, 4, and 8 μg/ml. Both the species of Bartonella were susceptible to all the antibiotics that were used in BAPGM and Grace's culture liquid mediums. […]

[2] = system: B. henselae; assay: Cell-free, liquid culture MBC assay; format: cell-based, Bartonella henselae; details: 96 hrs, plated on blood agar
Description: as §1
Briefly, the bacterial culture that was treated with therapeutic agents for 96 hrs was collected into a 1.5 ml microcentrifuge tubes and centrifuged at 7000 rpm for 10 min. The supernatant was removed, and the bacterial pellet was washed with 1×PBS twice. The bacterial pellet was then resuspended in 100 μL of 1×PBS, plated onto blood agar plates and incubated at 37° C. with 5% CO2 for about 14 days. This assay was repeated three times with all the 6 different antibiotics (azlocillin, azithromycin, ceftriaxone, doxycycline, gentamicin and ampicillin) and at different concentrations.
as §4
For this assay, both B. henselae and B. vinsonii were grown in Grace's insect media and were tested against all of the 6 antibiotics (ceftriaxone, doxycycline, gentamicin, azithromycin, azlocillin, ampicillin).

[3] = system: B. henselae and B. vinsonii; assay: MIC assay, summary over both species; format: cell-based, Bartonella; details: BAPGM and Grace's liquid media
Description: as §2, §3
The determination of susceptibility to therapeutic agents was performed in liquid culture media. Six different therapeutic agents were tested with multiple different concentrations against B. henselae and B. vinsonii. Therapeutic agent concentrations tested were as follows: Ceftriaxone 0.001, 0.01, 0.1, 0.3, 0.5, 1, 2, and 5 μg/ml; doxycycline 0.001, 0.01, 0.1, 0.3, 0.5, 1, 2, 5, and 10 μg/ml, gentamicin: 0.01, 0.1, 0.3, 0.5, 1, 2, 4, 8, and 16 μg/ml, and azithromycin: 0.001, 0.005, 0.02, 0.1, 0.3, 0.5, 1, 2, 5, and 10 μg/ml, were tested based on previous antibiotic susceptibility studies. The following azlocillin dilutions were included: 0.001, 0.005, 0.01, 0.02, 0.5, 1, 2, and 5 μg/ml. The ampicillin dilutions included were as follows: 0.001, 0.005, 0.01, 0.02, 0.5, 1, 2, 4, and 8 μg/ml. Both the species of Bartonella were susceptible to all the antibiotics that were used in BAPGM and Grace's culture liquid mediums. MICs ranged from 0.01 to 0.1 μg/ml for ceftriaxone, doxycycline, and ampicillin, 2.0-4.0 μg/ml for gentamicin, 0.1-0.5 μg/ml for azithromycin, and 0.001-0.01 μg/ml for azlocillin. […] However, both the bacteria were not susceptible towards any of the antibiotics when tested in Schneider's insect medium (Table 1).

[4] = system: B. henselae; details: cited from earlier work
[5] = Bartonella henselae, BAPGM, read-out: MIC
[6] = Bartonella henselae, Grace's insect media, read-out: MIC
[7] = Bartonella henselae, Schneider's insect medium, read-out: MIC
[8] = Bartonella henselae, read-out: MBC

## gentamicin
[1]; BAPGM
  MIC: 0.1 to 0.5 µg/mL
[1]; Grace's insect media
  MIC: 2.0 to 4.0 µg/mL
[1]; Schneider's insect medium
  MIC: >1 µg/mL
[2]
  MBC: 2.0 to 4.0 µg/mL
[3]
  MICs ranged: 2.0 to 4.0 µg/mL

## CC1(C)S[C@@H]2[C@H](NC(=O)[C@H](NC(=O)N3CCNC3=O)c3ccccc3)C(=O)N2[C@H]1C(=O)O [Azlocillin, azlocillin]
[1]; [5]
  MIC: 0.01 to 0.02 µg/mL
[1]; [6]
  MIC: 0.005 to 0.01 µg/mL
[1]; [7]
  MIC: > 2 µg/mL
[2]; [8]
  MBC: 1 to 2 µg/mL (≈ 2.17 to 4.33 µM)
[3]
  MICs ranged: 0.001 to 0.01 µg/mL
  susceptibility / inhibition of growth: most effective in inhibiting the growth of both the species of Bartonella

## CC[C@H]1OC(=O)[C@H](C)[C@@H](O[C@H]2C[C@@](C)(OC)[C@@H](O)[C@H](C)O2)[C@H](C)[C@@H](O[C@@H]2O[C@H](C)C[C@H](N(C)C)[C@H]2O)[C@](C)(O)C[C@@H](C)CN(C)[C@H](C)[C@@H](O)[C@]1(C)O [Azithromycin, azithromycin]
[4]; growing culture
  activity against growing bacterial culture: effective
[4]; stationary phase
  activity against stationary phase B. henselae: very poor activity
[1]; [5]
  MIC: 0.005 to 0.02 µg/mL
[1]; [6]
  MIC: 0.3 to 0.5 µg/mL
[1]; [7]
  MIC: > 0.02 µg/mL
[2]; [8]
  MBC: 5 to 10 µg/mL (≈ 6.68 to 13.4 µM)
[3]
  MICs ranged: 0.1 to 0.5 µg/mL

## CO/N=C(\C(=O)N[C@@H]1C(=O)N2C(C(=O)O)=C(CSc3nc(=O)c(=O)[nH]n3C)CS[C@H]12)c1csc(N)n1 [Ceftriaxone, ceftriaxone]
[1]; [5]
  MIC: 0.01 to 0.1 µg/mL
[1]; [6]
  MIC: 0.01 to 0.1 µg/mL
[1]; [7]
  MIC: > 0.3 µg/mL
[2]; [8]
  MBC: 2 to 4 µg/mL (≈ 3.61 to 7.21 µM)
